We go through 18 compounds from US20210101899A1, “INHIBITORS OF MUTANT ISOCITRATE DEHYDROGENASES AND COMPOSITIONS AND METHODS THEREOF” (IsoCure Biosciences Inc., priority 2016, published 2021).

Holding throughout (format): biochemical
The target of one test is IDH1 (R132C) (Homo sapiens, UniProt O75874, R132C). Briefly: IDH enzyme assay, NADPH depletion by diaphorase/resazurin coupled detection. The note with it: pre-incubated with enzyme for 1 h at room temperature; 500 μM a-Ketoglutarate+15 μM NADPH; 10-dose, 3-fold dilution from 10 μM; read-out: Compound IC50 (nM) IDH1 (R132C). On the procedure: (§1) Compounds were tested against 3 enzymes, as provided below. Compounds were tested in 10-dose IC50 mode with 3-fold serial dilution at a starting concentration of 10 μM. Control Compounds were tested in 10-dose IC50 mode with 3-fold serial dilution starting at 1 mM or 10 mM. Assay Format: The production or depletion of NADPH by IDH enzymes was measured by diaphorase/resazurin coupled detection. Fluorescence measurement: Ex/Em=535/590 by EnVision. Compounds were pre-incubated with enzyme for 1 h at room temperature. Standard substrate: 1500 μM a-Ketoglutarate+15 μM NADPH for IDH1 (R132H). 500 μM a-Ketoglutarate+15 μM NADPH for IDH1 (R132C). 65 μM Isocitrate+50 μM NADP for IDH1.
On the technique in general: Alamar Blue is a resazurin reagent that responds to reducing activity.

Another test deals with IDH1 (R132H) (Homo sapiens, UniProt O75874, R132H). The test is described as above. The note with it: pre-incubated with enzyme for 1 h at room temperature; 1500 μM a-Ketoglutarate+15 μM NADPH; 10-dose, 3-fold dilution from 10 μM; read-out: Compound IC50 (nM) IDH1 (R132H). On the procedure: as §1
Another test addresses IDH1 (Homo sapiens, UniProt O75874). Briefly: IDH enzyme assay, NADPH production by diaphorase/resazurin coupled detection. The following applies: IDH1 WT; pre-incubated with enzyme for 1 h at room temperature; 65 μM Isocitrate+50 μM NADP; 10-dose, 3-fold dilution from 10 μM; read-out: Compound IC50 (nM) IDH1. On the procedure: as §1

Chain of IDH1 (R132C) (O75874 whole entry R132C): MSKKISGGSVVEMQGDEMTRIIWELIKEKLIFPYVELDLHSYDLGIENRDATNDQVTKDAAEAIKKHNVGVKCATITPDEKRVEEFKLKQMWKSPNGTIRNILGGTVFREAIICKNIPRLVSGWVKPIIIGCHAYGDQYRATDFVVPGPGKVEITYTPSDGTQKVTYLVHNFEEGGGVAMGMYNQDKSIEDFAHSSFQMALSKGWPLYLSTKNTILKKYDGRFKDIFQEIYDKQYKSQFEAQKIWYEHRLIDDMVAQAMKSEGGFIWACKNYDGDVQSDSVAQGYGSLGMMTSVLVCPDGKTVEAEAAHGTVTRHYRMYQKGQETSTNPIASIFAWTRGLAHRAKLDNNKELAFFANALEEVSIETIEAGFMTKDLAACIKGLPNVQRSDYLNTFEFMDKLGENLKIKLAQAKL
Chain of IDH1 (R132H) (O75874 whole entry R132H): as the sequence (O75874 whole entry R132C) above, with C132H counted along it
Chain of IDH1 (O75874 whole entry): as the sequence (O75874 whole entry R132C) above, with C132R counted along it

As usually defined, the IC50 is the concentration needed to halve the response being measured. As to `C=CC(=O)Nc1cc(NC(=O)c2nn(Cc3ccc(F)cc3)c3c2CN(C(=O)c2ccc[nH]2)CC3C)ccc1OC` (stereo not shown) [ISO-2-30, N-(3-acrylamido-4-methoxyphenyl)-1-(4-fluorobenzyl)-7-methyl-5-(1H-pyrrole-2-carbonyl)-4,5,6,7-tetrahydro-1H-pyrazolo [4,3-c]pyridine-3-carboxamide], the IC50 on IDH1 (R132C) came to 8 nM; on IDH1 (R132H), 1 nM.

Regarding `C=CC(=O)N1CCC(NC(=O)c2nn(Cc3ccc(F)cc3)c3c2CN(C(=O)c2ccc[nH]2)CC3C)C1` (stereo not shown) [ISO-2-9, N-(1-acryloylpyrrolidin-3-yl)-1-(4-fluorobenzyl)-7-methyl-5-(1H-pyrrole-2-carbonyl)-4,5,6,7-tetrahydro-1H-pyrazolo[4,3-c]pyridine-3-carboxamide], the IC50 on IDH1, at IDH1 (R132C) and at IDH1 (R132H) was more than 10000 nM in each case.

As to `CC1CN(C(=O)c2ccc[nH]2)Cc2c(C(=O)Nc3cccc(NC(=O)CCl)c3)nn(Cc3ccc(F)cc3)c21` (stereo not shown) [ISO-2-5, N-(3-(2-chloroacetamido)phenyl)-1-(4-fluorobenzyl)-7-methyl-5-(1H-pyrrole-2-carbonyl)-4,5,6,7-tetrahydro-1H-pyrazolo [4,3-c]pyridine-3-carboxamide], the results for the IC50 at IDH1, on IDH1 (R132C) and on IDH1 (R132H) were more than 10000 nM, 2 nM and 3 nM, respectively.

On to `C=CC(=O)N1CCc2ccc(NC(=O)c3nn(Cc4ccc(F)cc4)c4c3CN(C(=O)c3ccc[nH]3)CC4C)cc21` (stereo not shown) [ISO-2-31, N-(1-acryloylindolin-6-yl)-1-(4-fluorobenzyl)-7-methyl-5-(1H-pyrrole-2-carbonyl)-4,5,6,7-tetrahydro-1H-pyrazolo[4,3-c]pyridine-3-carboxamide], for which the results for the IC50 at IDH1 (R132C) and on IDH1 (R132H) were 27 nM and 5 nM, respectively.

Take `C=CC(=O)Nc1cc(NC(=O)c2nn(Cc3ccc(F)cc3)c3c2CN(C(=O)c2ccc[nH]2)C[C@H]3C)ccc1OC` [ISO-2-30-R]: the IC50 came to 2210 nM at IDH1, 14 nM on IDH1 (R132C) and 6 nM on IDH1 (R132H).

On to `C=CC(=O)Nc1ccc(NC(=O)c2nn(Cc3ccc(F)cc3)c3c2CN(C(=O)c2ccc[nH]2)C[C@H]3C)cc1` [ISO-2-25-R], for which the IC50 at IDH1 was 2140 nM; at IDH1 (R132C), 21 nM; on IDH1 (R132H), 10 nM.

Consider `C=CC(=O)N1CC(NC(=O)c2nn(Cc3ccc(F)cc3)c3c2CN(C(=O)c2ccc[nH]2)CC3C)C1` (stereo not shown) [ISO-2-10, N-(1-acryloylazetidin-3-yl)-1-(4-fluorobenzyl)-7-methyl-5-(1H-pyrrole-2-carbonyl)-4,5,6,7-tetrahydro-1H-pyrazolo[4,3-c]pyridine-3-carboxamide], for which the IC50 at IDH1 was more than 10000 nM; on IDH1 (R132C), 9500 nM; on IDH1 (R132H), more than 10000 nM.

Turning to `C=CC(=O)Nc1cccc(NC(=O)c2nn(Cc3ccc(F)cc3)c3c2CN(C(=O)c2ccc[nH]2)CC3C)c1` (stereo not shown) [ISO-2-4, N-(3-acrylamidophenyl)-1-(4-fluorobenzyl)-7-methyl-5-(1H-pyrrole-2-carbonyl)-4,5,6,7-tetrahydro-1H-pyrazolo[4,3-c]pyridine-3-carboxamide], the 50% inhibitory concentration (IC50) on IDH1 is more than 10000 nM; at IDH1 (R132C), 121 nM; at IDH1 (R132H) it was 49 nM.

As to `C=CC(=O)NCc1cc(Cn2nc(C(=O)Nc3cccc(C)c3)c3c2C(C)CN(C(=O)c2ccc[nH]2)C3)ccc1F` (stereo not shown) [ISO-2-2, 1-(3-(acrylamidomethyl)-4-fluorobenzyl)-7-methyl-5-(1H-pyrrole-2-carbonyl)-N-(m-tolyl)-4,5,6,7-tetrahydro-1H-pyrazolo[4,3-c]pyridine-3-carboxamide], the IC50 at IDH1 was more than 10000 nM; at IDH1 (R132C) it was 152 nM; at IDH1 (R132H), 33 nM.

Take `C=CC(=O)Nc1ccc(NC(=O)c2nn(Cc3ccc(F)cc3)c3c2CN(C(=O)c2ccc[nH]2)C[C@@H]3C)cc1` [ISO-2-25-S]: the results for the IC50 at IDH1 (R132C) and on IDH1 (R132H) were 7720 nM and 1360 nM, respectively.

In the case of `C=CC(=O)Nc1cccc(CNC(=O)c2nn(Cc3ccc(F)cc3)c3c2CN(C(=O)c2ccc[nH]2)CC3C)c1` (stereo not shown) [ISO-2-32, N-(3-acrylamidobenzyl)-1-(4-fluorobenzyl)-7-methyl-5-(1H-pyrrole-2-carbonyl)-4,5,6,7-tetrahydro-1H-pyrazolo[4,3-c]pyridine-3-carboxamide], the results for the IC50 on IDH1 (R132C) and on IDH1 (R132H) were 7500 nM and 3150 nM, respectively.

With `C=CC(=O)Nc1ccc(NC(=O)c2nn(Cc3ccc(F)cc3)c3c2CN(C(=O)c2ccc[nH]2)CC3C)s1` (stereo not shown) [ISO-2-19, N-(5-acrylamidothiophen-2-yl)-1-(4-fluorobenzyl)-7-methyl-5-(1H-pyrrole-2-carbonyl)-4,5,6,7-tetrahydro-1H-pyrazolo[4,3-c]pyridine-3-carboxamide], the IC50 on IDH1 is 4780 nM; on IDH1 (R132C), 35 nM; at IDH1 (R132H) it was 5 nM.

As for `Cc1cccc(NC(=O)c2nn(Cc3ccc(F)c(NC(=O)/C=C/CCl)c3)c3c2CN(C(=O)c2ccc[nH]2)CC3C)c1` (stereo not shown) [ISO-2-36, (E)-1-(3-(4-chlorobut-2-enamido)-4-fluorobenzyl)-7-methyl-5-(1H-pyrrole-2-carbonyl)-N-(m-tolyl)-4,5,6,7-tetrahydro-1H-pyrazolo[4,3-c]pyridine-3-carboxamide], the results for the IC50 at IDH1 (R132C) and at IDH1 (R132H) were 8 nM and 0.5 nM, respectively.

Regarding `C=CC(=O)N1CCC(NC(=O)c2nn(Cc3ccc(F)cc3)c3c2CN(C(=O)c2ccc[nH]2)CC3C)CC1` (stereo not shown) [ISO-2-26, N-(1-acryloylpiperidin-4-yl)-1-(4-fluorobenzyl)-7-methyl-5-(1H-pyrrole-2-carbonyl)-4,5,6,7-tetrahydro-1H-pyrazolo[4,3-c]pyridine-3-carboxamide], the IC50 at IDH1, on IDH1 (R132C) and at IDH1 (R132H) was more than 10000 nM in each case.

As for `C=CC(=O)Nc1ccc2c(Cn3nc(C(=O)Nc4cccc(C)c4)c4c3C(C)CN(C(=O)c3ccc[nH]3)C4)cccc2c1` (stereo not shown) [ISO-2-38, 1-((6-acrylamidonaphthalen-1-yl)methyl)-7-methyl-5-(1H-pyrrole-2-carbonyl)-N-(m-tolyl)-4,5,6,7-tetrahydro-1H-pyrazolo[4,3-c]pyridine-3-carboxamide], the results for the IC50 at IDH1 (R132C) and on IDH1 (R132H) were 4 nM and 0.5 nM, respectively.

As for `C=CC(=O)N1CCCC(NC(=O)c2nn(Cc3ccc(F)cc3)c3c2CN(C(=O)c2ccc[nH]2)CC3C)C1` (stereo not shown) [ISO-2-6, N-(1-acryloylpiperidin-3-yl)-1-(4-fluorobenzyl)-7-methyl-5-(1H-pyrrole-2-carbonyl)-4,5,6,7-tetrahydro-1H-pyrazolo[4,3-c]pyridine-3-carboxamide], the half-inhibitory concentration (IC50) at IDH1, on IDH1 (R132C) and on IDH1 (R132H) was more than 10000 nM each time.

Consider `C=CC(=O)Nc1cc(NC(=O)c2nn(Cc3ccc(F)cc3)c3c2CN(C(=O)c2ccc[nH]2)CC3C)ccc1Cl` (stereo not shown) [ISO-2-29, N-(3-acrylamido-4-chlorophenyl)-1-(4-fluorobenzyl)-7-methyl-5-(1H-pyrrole-2-carbonyl)-4,5,6,7-tetrahydro-1H-pyrazolo [4,3-c]pyridine-3-carboxamide], for which the IC50 at IDH1 (R132C) was found to be 61 nM; at IDH1 (R132H), 14 nM.

As for `C=CC(=O)Nc1cc(NC(=O)c2nn(Cc3ccc(F)cc3)c3c2CN(C(=O)c2ccc[nH]2)C[C@@H]3C)ccc1OC` [ISO-2-30-S], the figures for the half-inhibitory concentration (IC50) on IDH1 (R132C) and on IDH1 (R132H) were 1180 nM and 839 nM, respectively.
